Measured values from PubChem BioAssay AID330 (DTP/NCI, 2004).
Where “and” joins values, the source holds several entries; their conditions need not be identical. Equal entries are not always repeated. Toxic doses and inconclusive results are not listed. How the source made its calls: active means survival T/C of 150% or more; inactive means T/C below 125% in these data. Square brackets hold non-standard residues; d marks the D form. Peptide text beside a SMILES is read from it. * marks the point of attachment. Nle = CCCC[CH](N)C(=O)O; Cbz = O=C(OCc1ccccc1)*

Tested on: P388 leukemia ip, CD2F1 mice, survival T/C
Assay: NCI In Vivo Anticancer Drug Screen. Data for tumor model P388 Leukemia (intraperitoneal) in CD2F1 (CDF1) mice
Conditions: endpoint: median survival time, higher = longer survival
In short: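 Mice carrying the transplanted tumor received test compound or vehicle. Survival was recorded in each group, and the value is the treated-group measurement divided by that of the vehicle-treated control group.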

[1] = dose: 50.0 mg/kg/injection, schedule: Q01DX005 (ip), vehicle: Klucel (hydroxypropylcellulose) (HPC)
[2] = dose: 100.0 mg/kg/injection, schedule: Q01DX005 (ip), vehicle: Klucel (hydroxypropylcellulose) (HPC)
[3] = dose: 200.0 mg/kg/injection, schedule: Q01DX005 (ip), vehicle: Klucel (hydroxypropylcellulose) (HPC)
[4] = dose: 25.0 mg/kg/injection, schedule: Q01DX005 (ip), vehicle: saline with Tween-80
[5] = dose: 50.0 mg/kg/injection, schedule: Q01DX005 (ip), vehicle: saline with Tween-80
[6] = dose: 25.0 mg/kg/injection, schedule: Q04DX003 (ip), vehicle: saline with Tween-80
[7] = dose: 50.0 mg/kg/injection, schedule: Q04DX003 (ip), vehicle: saline with Tween-80
[8] = dose: 100.0 mg/kg/injection, schedule: Q04DX003 (ip), vehicle: saline with Tween-80
[9] = dose: 200.0 mg/kg/injection, schedule: Q04DX003 (ip), vehicle: saline with Tween-80
[10] = dose: 50.0 mg/kg/injection, schedule: Q01DX009 (ip), vehicle: saline
[11] = dose: 100.0 mg/kg/injection, schedule: Q01DX005 (ip), vehicle: saline with Tween-80
[12] = dose: 200.0 mg/kg/injection, schedule: Q01DX005 (ip), vehicle: saline with Tween-80

Measured: T/C

COc1cc2c(cc1OC)-c1c3c(cc4c1[C@@H](C2)N(C)CC4)OCO3
inactive: dose: 12.5 mg/kg/injection, schedule: Q01DX009 (ip), vehicle: distilled water + Tween-80 107 % of control | dose: 12.5 mg/kg/injection, schedule: Q01DX009 (ip), vehicle: saline with Tween-80 106 % of control | dose: 25.0 mg/kg/injection, schedule: Q01DX009 (ip), vehicle: distilled water + Tween-80 107 % of control | dose: 25.0 mg/kg/injection, schedule: Q01DX009 (ip), vehicle: saline with Tween-80 100 % of control | dose: 50.0 mg/kg/injection, schedule: Q01DX009 (ip), vehicle: distilled water + Tween-80 116 % of control | dose: 50.0 mg/kg/injection, schedule: Q01DX009 (ip), vehicle: saline with Tween-80 102 % of control

CC(C)=NN/C=N/S(=O)(=O)c1ccc(C)cc1
inactive: [1] 104 % of control | [2] 104 % of control | [3] 104 % of control

C/C(=N\NC(=S)N1CCC(C)CC1)c1nccs1
inactive: dose: 12.5 mg/kg/injection, schedule: Q01DX005 (ip), vehicle: saline with Tween-80 106 % of control | [4] 116 % of control | [5] 118 % of control

CCOC(=O)C(=CNc1ccc2c(C)cc3ccc(C(=O)OCC)c(=O)n3c2n1)C(=O)OCC
inactive: [1] 88 % of control | [2] 86 % of control

NC1=C(O)C(=O)C(c2ccc3c(c2)CCC3)O1 (centres undefined)
inactive: dose: 60.0 mg/kg/injection, schedule: Q01DX005 (ip), vehicle: Klucel (hydroxypropylcellulose) (HPC) 91 % of control | dose: 120.0 mg/kg/injection, schedule: Q01DX005 (ip), vehicle: Klucel (hydroxypropylcellulose) (HPC) 87 % of control

Cn1c2nc(=O)[nH]c(=O)c-2cc2ccccc21
inactive: [6] 95 % of control | [7] 93 % of control | [8] 90 % of control | [9] 94 % of control

CCSC1C(=O)N(C)C(SCC)C(=O)N1C (centres undefined)
inactive: dose: 12.5 mg/kg/injection, schedule: Q01DX009 (ip), vehicle: saline 103 % of control | dose: 25.0 mg/kg/injection, schedule: Q01DX009 (ip), vehicle: saline 109 % of control | [10] 100 % of control and 86 % of control

CCN(CC)CCCN1CC2CC=CCC2C1 (centres undefined)
inactive: dose: 50.0 mg/kg/injection, schedule: Q01DX005 (ip), vehicle: saline 98 % of control | dose: 100.0 mg/kg/injection, schedule: Q01DX005 (ip), vehicle: saline 100 % of control | dose: 200.0 mg/kg/injection, schedule: Q01DX005 (ip), vehicle: saline 105 % of control

OC(CNc1ccc(CSc2ccccc2)cc1)c1ccccc1 (centres undefined)
inactive: dose: 50.0 mg/kg/injection, schedule: Q01DX009 (ip), vehicle: saline + Tween-80 + alcohol 101 % of control and 104 % of control | dose: 100.0 mg/kg/injection, schedule: Q01DX009 (ip), vehicle: saline + Tween-80 + alcohol 99 % of control | dose: 200.0 mg/kg/injection, schedule: Q01DX009 (ip), vehicle: saline + Tween-80 + alcohol 99 % of control and 102 % of control | dose: 400.0 mg/kg/injection, schedule: Q01DX009 (ip), vehicle: saline + Tween-80 + alcohol 104 % of control and 90 % of control

CCCCCCCCC(CCc1ccccc1)CCc1ccccc1
inactive: dose: 50.0 mg/kg/injection, schedule: Q01DX001 (ip), vehicle: saline with Tween-80 88 % of control | dose: 200.0 mg/kg/injection, schedule: Q01DX001 (ip), vehicle: saline with Tween-80 100 % of control

O=c1[nH]cnc2cc3[nH]ncc3cc12
inactive: dose: 1.5 mg/kg/injection, schedule: Q01DX005 (ip), vehicle: saline with Tween-80 95 % of control | dose: 3.0 mg/kg/injection, schedule: Q01DX005 (ip), vehicle: saline with Tween-80 87 % of control | dose: 6.25 mg/kg/injection, schedule: Q01DX005 (ip), vehicle: saline with Tween-80 97 % of control | [11] 89 % of control | [12] 88 % of control

O.O=C(O)CN(CCN(CC(=O)O)CC(=O)O)CC(=O)O.[Rh+2]
inactive: dose: 100.0 mg/kg/injection, schedule: Q01DX009 (ip), vehicle: saline sonified 90 % of control | dose: 200.0 mg/kg/injection, schedule: Q01DX009 (ip), vehicle: saline sonified 90 % of control | dose: 400.0 mg/kg/injection, schedule: Q01DX009 (ip), vehicle: saline sonified 95 % of control

OCc1ccccc1
inactive: dose: 0.12 % in 0.5 ml injection vol, schedule: Q01DX009 (ip), vehicle: water 94 % of control | dose: 0.25 % in 0.5 ml injection vol, schedule: Q01DX009 (ip), vehicle: water 94 % of control | dose: 0.5 % in 0.5 ml injection vol, schedule: Q01DX009 (ip), vehicle: water 100 % of control and 103 % of control | dose: 1.0 % in 0.5 ml injection vol, schedule: Q01DX009 (ip), vehicle: water 95 % of control and 98 % of control | dose: 2.0 % in 0.5 ml injection vol, schedule: Q01DX009 (ip), vehicle: water 98 % of control

COc1ccc(-c2oc3cc(OC)c(OC)c(OC)c3c(=O)c2O)cc1O
inactive: [6] 87 % of control | [7] 105 % of control | [8] 97 % of control | [9] 99 % of control

COc1ccccc1C1c2cc3c(cc2OC(C)(N2CCCC2)C1C)OCO3 (centres undefined)
inactive: dose: 100.0 mg/kg/injection, schedule: Q04DX002 (ip), vehicle: saline with Tween-80 96 % of control | dose: 200.0 mg/kg/injection, schedule: Q04DX002 (ip), vehicle: saline with Tween-80 102 % of control | dose: 400.0 mg/kg/injection, schedule: Q04DX002 (ip), vehicle: saline with Tween-80 99 % of control

COc1cc(NC(=O)c2ccc(NC(=O)c3ccc(N)cc3)cc2)c(OC)cc1N=Nc1cc(C)c(N=Nc2cc(S(=O)(=O)O)c3cccc(S(=O)(=O)O)c3c2)cc1C
inactive: [5] 100 % of control | [11] 94 % of control

CCOC(=O)C/C(O)=C(\N=Nc1nc[nH]c1C(N)=O)C(=O)OCC
inactive: [5] 105 % of control | [11] 91 % of control | [12] 97 % of control

COc1ccc2c(c1)C(NCCCCCCNc1cc(C)[n+](C)c3ccc(OC)cc13)=CC(C)N2C (centres undefined)
inactive: [4] 113 % of control | [5] 118 % of control

C/C(=N\NC(=S)N1CCCC1)c1ncccn1
inactive: dose: 12.5 mg/kg/injection, schedule: Q04DX003 (ip), vehicle: Klucel (hydroxypropylcellulose) (HPC) 108 % of control | dose: 25.0 mg/kg/injection, schedule: Q04DX003 (ip), vehicle: Klucel (hydroxypropylcellulose) (HPC) 108 % of control | dose: 50.0 mg/kg/injection, schedule: Q04DX003 (ip), vehicle: Klucel (hydroxypropylcellulose) (HPC) 112 % of control

Nc1cc(N)c(Nc2ccccc2)cc1Nc1ccccc1
inactive: dose: 100.0 mg/kg/injection, schedule: Q01DX001 (ip), vehicle: Klucel (hydroxypropylcellulose) (HPC) 99 % of control | dose: 200.0 mg/kg/injection, schedule: Q01DX001 (ip), vehicle: Klucel (hydroxypropylcellulose) (HPC) 101 % of control | dose: 400.0 mg/kg/injection, schedule: Q01DX001 (ip), vehicle: Klucel (hydroxypropylcellulose) (HPC) 97 % of control

Cc1ccc(C#N)c(Cl)c1
inactive: [10] 100 % of control | dose: 100.0 mg/kg/injection, schedule: Q01DX009 (ip), vehicle: saline 100 % of control | dose: 200.0 mg/kg/injection, schedule: Q01DX009 (ip), vehicle: saline 106 % of control

CCCCC(NC(=O)OCc1ccccc1)C(=O)NC(C(=O)O)C(C)C (centres undefined) (Cbz-[Nle]-Val-OH; configuration not given here)
inactive: [1] 99 % of control | [2] 111 % of control | [3] 104 % of control

N#CC12C3C4C5C3C1n1c(=O)n(-c3ccccc3)c(=O)n1C5C42 (centres undefined)
inactive: dose: 100.0 mg/kg/injection, schedule: Q04DX003 (ip), vehicle: Klucel (hydroxypropylcellulose) (HPC) 106 % of control | dose: 200.0 mg/kg/injection, schedule: Q04DX003 (ip), vehicle: Klucel (hydroxypropylcellulose) (HPC) 106 % of control | dose: 400.0 mg/kg/injection, schedule: Q04DX003 (ip), vehicle: Klucel (hydroxypropylcellulose) (HPC) 107 % of control
